Key:
[1] = tested on: tau; test: Western blotting of phospho-tau and total tau in hippocampal tissue of hTauP301S mice; assay type: in vivo; settings: 6 weeks oral dosing
Description: Levels of phospho-tau (FIG. 5A) and total tau (FIG. 5B) as measured by Western blotting in hippocampal tissue from male nontransgenic (NTG) and hTauP301S mice after 6 weeks of oral dosing with S3QEL2 or vehicle. n=3-6 mice per group. *p<0.05, **p<0.01, ***p<0.001, ANOVA with Dunnett's test.
As assessed by immunolabeling, hTauP301S mice treated with S3QEL2 also had reduced levels of glial fibrillary acidic protein (GFAP)-positive astrogliosis and phosphorylated tau (FIG. 7). Western blotting confirmed reduced levels of phosphorylated but not total tau in these mice (FIG. 5).

[2] = tested on: A-172 glioblastoma cells; test: Glioblastoma cell proliferation, DAPI staining of cell nuclei, A-172; assay type: cell-based, human; settings: 72 h
Experimental: (§1) Cell density was measured using DAPI staining of cell nuclei and quantification of fluorescence intensities. n=3 wells per condition. […] STAT3 levels were measured by Western blotting. STAT3 levels were normalized to γ-tubulin levels within each cell lysate and expressed as fold change relative to U-87MG cells. n=4 wells per condition. **p<0.01, ***p<0.001 vs. 0 μM or U-87MG, one-way ANOVA with Dunnett's multiple comparisons test.
(§2) Briefly, two complementary methods were used to assess cell proliferation, including the CellTiter-Glo assay and DAPI staining of cell nuclei. The effects of S3QEL2 treatment on A-172, T98G, and U-87 MG cells were measured at different drug concentrations (0, 6, 20, 30, 40, or 50 μM) and time-points after treatment (72 or 96 hours). S3QEL2 inhibits proliferation of A-172 and T98G glioblastoma cells in a highly dose-dependent manner and these effects are similar at different time-points (FIG. 15A-B).

[3] = tested on: hTauP301S mice; test: Survival of hTauP301S mice on S3QEL2-formulated chow; assay type: in vivo; settings: long-term chow administration from 4-5 months of age
Description: Nontransgenic (NTG) and transgenic hTauP301S male mice received oral dosing with S3QEL2-formulated chow or control chow (Control) for indicated durations starting at 4-5 months of age. n=14-15 mice per genotype and treatment, pairwise Mantel-Cox test.
Survival rates in wild-type and transgenic hTauP301S mice during chronic treatment with control or S3QEL2-containing chow was also monitored.

[4] = tested on: astrocytic H2O2 production; test: Released H2O2 from primary astrocytes (Amplex UltraRed); assay type: cell-based, mice; settings: S3QEL2 20 μM, S3QEL1.2 1 μM, approximately 24 h
Experimental: (FIG. 17A) Astrocytes isolated from P2-P3 mice were treated with A1 cocktail consisting of 30 ng/ml TNF-α, 3 ng/ml IL-1α, and 400 ng/ml Clq, and S3QEL1.2 (3 μM) or vehicle for approximately 6 h and analyzed by Western blotting. Phospho-STAT3 levels were normalized to total STAT3 per sample. n=6 wells per condition. **p<0.01, ***p<0.001, one-way ANOVA with Dunnett's multiple comparisons test. (FIG. 17B) Astrocytes isolated from P2-P3 mice were treated with A1 cocktail consisting of 30 ng/ml TNF-α, 3 ng/ml IL-1α, and 400 ng/ml Clq for 24 h, and analyzed for levels of released H2O2 using Amplex UltraRed, a fluorogenic substrate that is a highly sensitive indicator of H2O2, in the presence of horseradish peroxidase and superoxide dismutase. n=6 wells per condition. *p=0.01, Student's t test. (FIG. 17C) Astrocytes isolated from P2-P3 mice were treated with vehicle or 3 ng/ml IL-1α and either S3QEL2 (20 μM), S3QEL1.2 (1 μM), or vehicle for approximately 24 h, and analyzed for levels of released H2O2 using Amplex UltraRed. n=6 wells per condition. *p<0.05, **p<0.01, ***p<0.001, two-way ANOVA with Bonferroni's multiple comparisons test. […]

[5] = tested on: U-87 MG glioblastoma cells; test: Glioblastoma cell proliferation, DAPI staining of cell nuclei, U-87 MG; assay type: cell-based, human; settings: 72 h
Experimental: as §1, §2

[6] = Brain levels of compound after i.p. injection or oral consumption (pharmacokinetics); assay type: in vivo, mice
Experimental: (FIGS. 1A-B) Levels of S3QEL2 (FIG. 1A) and S1QEL1.1 (FIG. 1B) in the brain following a single i.p. injection or oral consumption (per oral, PO), which improved duration of exposure. n=3-6 wild-type mice per group. (FIGS. 1C-D) Body weights of male nontransgenic (NTG) or hTauP301S mice treated with S3QEL2 (FIG. 1C) (S3, 5 mg/kg/day, PO in almond butter), S1QEL1.1 (FIG. 1D) (10 mg/kg/day, PO in almond butter), or vehicle. (FIG. 1E) Levels of S3QEL2 in the mouse brain following almond butter (AB) or chow administration at indicated doses for 21 days. (n=15 mice per dose). n=3-15 wild-type mice per condition. (FIG. 1F) Body weight of 4-5-month-old wild-type male mice treated with formulated chow containing S3QEL2 at indicated doses and durations (n=15 mice per dose).
A series of pharmacokinetic and drug tolerance experiments with S3QEL2 in adult wild-type and transgenic hTauP301S mice was first performed. Different administration routes and drug formulations were tested. […] Chow that was formulated to deliver 0, 5, 15, or 30 mg/kg/day of S3QEL2 was also tested.

[7] = tested on: lipocalin-2; test: Lipocalin-2 protein released by primary astrocytes (ELISA); assay type: cell-based, mice; settings: A1 cocktail, 60 μM, approximately 24 h
Experimental: Astrocytes isolated from P2-P3 mice were treated with A1 cocktail consisting of 30 ng/mL TNF-α, 3 ng/mL IL-1α, and 400 ng/mL Clq, and S3QEL2 (S3, 60 μM) or vehicle (Con) for approximately 24 h. Levels of astrocytic lipocalin-2 protein released into the culture media were analyzed by ELISA. n=4 wells per condition. **p<0.01, ***p<0.001, one-way ANOVA with Dunnett's multiple comparisons test.

CCCN(CCC)c1ncnc2c1cnn2-c1ccc(C)c(C)c1 [S3QEL2]
Phospho-tau levels (Western blotting) [1]: reduced
Cell proliferation (cell density, DAPI staining) [2]: reduces proliferation
Early mortality associated with tauopathy [3]: significantly reduced early mortality
Increases in astrocytic H2O2 levels induced by IL-1α ([4]; IL-1α 3 ng/ml): suppressed the increases
Baseline astrocytic H2O2 levels ([4]; vehicle): minimal effects
Cell proliferation (cell density, DAPI staining) [5]: but not U-87 MG cells
Crossing of the blood-brain barrier (levels in the brain) ([6]; after peripheral administration, wild-type mice): readily crossed the blood-brain barrier
Increase in the area under the curve of drug presence in the brain, oral intake as compared to i.p. injection ([6]; brain, oral vs intraperitoneal): 6 fold
Chronic delivery to the brain by formulated chow ([6]; chow vs almond butter, 21 days, wild-type mice): equally effective in chronically delivering S3QEL2 to the brain
Release of lipocalin-2 protein into culture media [7]: inhibited the release of lipocalin-2
